Measured values published in article PMC6338644 (The FASEB Journal, 2018).
Counter-ions that a name gives are not always drawn.

Legend:
[1] = biological target: T1, SHIP2 immunoprecipitated from the lysates of hepatoma cells (Rattus norvegicus, UniProt Q9WVR3); experiment: Activity of SHIP2 immunoprecipitated from hepatoma cells; assay type: cell-based; conditions: 10 µM, 20–24 h
T1 construct: endogenous in cells; host or cells: Fao hepatoma cells
T1 sequence (Q9WVR3 1-1257): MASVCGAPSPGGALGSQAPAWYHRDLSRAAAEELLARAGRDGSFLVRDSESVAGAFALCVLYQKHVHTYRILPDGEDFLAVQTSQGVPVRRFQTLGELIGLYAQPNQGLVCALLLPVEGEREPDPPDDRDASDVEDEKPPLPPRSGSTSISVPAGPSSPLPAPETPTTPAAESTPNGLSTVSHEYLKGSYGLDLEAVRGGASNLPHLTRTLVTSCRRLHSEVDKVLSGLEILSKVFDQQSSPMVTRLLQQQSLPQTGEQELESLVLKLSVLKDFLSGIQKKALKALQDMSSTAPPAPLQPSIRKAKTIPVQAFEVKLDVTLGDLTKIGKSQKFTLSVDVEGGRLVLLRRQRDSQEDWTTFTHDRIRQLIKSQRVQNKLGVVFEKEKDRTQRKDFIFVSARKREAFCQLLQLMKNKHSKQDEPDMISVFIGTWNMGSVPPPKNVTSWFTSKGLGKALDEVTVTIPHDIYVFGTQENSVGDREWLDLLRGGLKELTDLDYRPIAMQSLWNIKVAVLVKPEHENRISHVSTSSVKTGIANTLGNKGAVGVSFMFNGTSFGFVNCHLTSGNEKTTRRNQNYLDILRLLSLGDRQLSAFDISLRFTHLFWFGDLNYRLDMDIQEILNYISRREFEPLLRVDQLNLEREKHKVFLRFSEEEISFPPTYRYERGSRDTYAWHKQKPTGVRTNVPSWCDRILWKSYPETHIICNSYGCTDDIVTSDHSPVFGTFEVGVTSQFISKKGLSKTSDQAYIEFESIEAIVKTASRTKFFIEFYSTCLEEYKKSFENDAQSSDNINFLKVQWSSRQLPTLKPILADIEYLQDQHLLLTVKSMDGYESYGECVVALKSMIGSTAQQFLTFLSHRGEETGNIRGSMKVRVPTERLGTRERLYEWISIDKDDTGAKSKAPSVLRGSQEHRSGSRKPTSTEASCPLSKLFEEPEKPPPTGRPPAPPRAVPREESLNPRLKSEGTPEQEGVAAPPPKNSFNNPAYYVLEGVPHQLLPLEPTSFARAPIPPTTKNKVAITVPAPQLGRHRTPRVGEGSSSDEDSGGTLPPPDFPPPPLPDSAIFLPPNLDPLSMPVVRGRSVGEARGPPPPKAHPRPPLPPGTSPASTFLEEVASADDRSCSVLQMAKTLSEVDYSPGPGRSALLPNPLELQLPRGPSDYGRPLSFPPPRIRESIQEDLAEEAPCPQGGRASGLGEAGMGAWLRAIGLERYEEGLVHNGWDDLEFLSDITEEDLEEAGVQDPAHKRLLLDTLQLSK
Experimental: (§1) Immunocomplexes were bound to protein G-Sepharose beads at +4°C for 2 h and washed 3 times with malachite green phosphate assay buffer {10 mM 4-(2-hydroxyethyl)-1-piperazineethanesulfonic acid (HEPES), pH 7.25, 6 mM MgCl2, 0.1% 3-[(3-cholamidopropyl)dimethylammonio]-1-propanesulfonate (CHAPS), 250 mM sucrose, and 0.25 mM EDTA}.
(§2) The catalytic activity of SHIP2 immunoprecipitated from cell and tissue lysates was determined as in Saurus et al. ([22]), omitting SHIP2 inhibitors in lysis buffer, immunoprecipitation reaction, wash, and assay buffers.

[2] = biological target: SHIP2 in tissues of db/db mice (Mus musculus, UniProt Q6P549); conditions: 250 mg/kg per day, 12 d
Chain of SHIP2 in tissues of db/db mice (Q6P549 whole entry): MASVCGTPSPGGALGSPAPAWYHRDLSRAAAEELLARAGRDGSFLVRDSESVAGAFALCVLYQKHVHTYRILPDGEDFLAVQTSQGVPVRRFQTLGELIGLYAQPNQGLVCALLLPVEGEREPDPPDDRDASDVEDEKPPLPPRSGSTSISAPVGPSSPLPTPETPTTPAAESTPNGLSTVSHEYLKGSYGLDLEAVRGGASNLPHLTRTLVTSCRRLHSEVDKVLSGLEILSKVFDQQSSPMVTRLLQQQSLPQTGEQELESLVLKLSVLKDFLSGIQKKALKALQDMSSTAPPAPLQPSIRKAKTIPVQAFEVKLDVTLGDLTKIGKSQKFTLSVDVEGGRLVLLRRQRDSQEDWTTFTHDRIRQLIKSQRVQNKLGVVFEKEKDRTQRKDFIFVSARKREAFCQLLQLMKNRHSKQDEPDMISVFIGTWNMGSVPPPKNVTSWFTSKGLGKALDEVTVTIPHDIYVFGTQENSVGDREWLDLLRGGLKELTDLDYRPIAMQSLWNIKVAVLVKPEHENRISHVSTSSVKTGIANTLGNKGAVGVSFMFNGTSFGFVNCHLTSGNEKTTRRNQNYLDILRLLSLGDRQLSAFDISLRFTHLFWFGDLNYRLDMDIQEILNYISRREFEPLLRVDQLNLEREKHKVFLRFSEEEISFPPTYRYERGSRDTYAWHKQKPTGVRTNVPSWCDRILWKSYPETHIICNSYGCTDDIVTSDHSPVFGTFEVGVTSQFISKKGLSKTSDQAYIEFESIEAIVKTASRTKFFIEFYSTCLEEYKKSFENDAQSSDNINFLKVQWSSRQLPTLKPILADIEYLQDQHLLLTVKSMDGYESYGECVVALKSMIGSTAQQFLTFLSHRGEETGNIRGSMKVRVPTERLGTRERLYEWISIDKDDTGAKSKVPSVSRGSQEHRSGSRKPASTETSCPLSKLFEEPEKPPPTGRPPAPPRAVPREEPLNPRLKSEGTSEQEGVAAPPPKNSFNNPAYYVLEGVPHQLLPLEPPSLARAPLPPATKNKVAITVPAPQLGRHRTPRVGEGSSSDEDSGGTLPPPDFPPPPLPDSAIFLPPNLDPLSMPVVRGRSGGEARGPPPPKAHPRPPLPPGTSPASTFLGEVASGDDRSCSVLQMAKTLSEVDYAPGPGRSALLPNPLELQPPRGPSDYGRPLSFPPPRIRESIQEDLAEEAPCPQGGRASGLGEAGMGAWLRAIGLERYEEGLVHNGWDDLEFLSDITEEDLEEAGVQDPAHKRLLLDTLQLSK
Experimental: as §2
At the end of the experiment, mice were euthanized. Freshly dissected skeletal muscle, kidney, and liver tissues were snap frozen in liquid nitrogen, embedded in Tissue-Tek Optimal Cutting Temperature (OCT) compound (Sakura Finetek, Alphen aan den Rijn, The Netherlands), or fixed in 10% formalin, followed by embedding in paraffin.
SHIP2 was immunoprecipitated from tissue lysates and its catalytic activity measured by malachite green phosphate assay (n = 6–8).

PCK1 and G6Pase mRNA = experiment: Quantitative RT-PCR of gluconeogenesis genes in db/db mice; assay type: in vivo, mouse; conditions: 250 mg/kg per day, 12 d
From the text: At the end of the experiment, mice were euthanized. […]
The expression levels of the rate-
analyzed by quantitative RT-PCR (n=6).
internal controls for liver and kidney, respectively. The bars show the mean expres sion in arbitrary

db/db mice = experiment: Metabolic assays in db/db mice; assay type: in vivo, mouse; conditions: 250 mg/kg per day, 12 d
Experimental: At the end of the experiment, mice were euthanized.
Insulin tolerance test was performed and blood glucose measured at the indicated times after insulin injection, and the area under the curve (AUC) was calculated (n = 5–6).

[3] = tested on: GLUT1 and GLUT4 protein expression; experiment: Immunoblot of GLUT1 and GLUT4 expression in myotubes and podocytes; assay type: cell-based, rat, human; conditions: 2 mM, 20–24 h
From the text: (§3) Rat L6 myoblasts (American Type Culture Collection, Manassas, VA, USA) and hepatoma cells (Fao Cells, Culture Collection; Public Health England, Salisbury, United Kingdom) were maintained according to the provider’s instructions. L6 myoblasts stably expressing hemagglutinin-GLUT4-green fluorescent protein (HA-GLUT4-GFP, referred to as L6-GLUT4) were generated, as previously described ([19]). Immortalized human podocytes were maintained as previously described ([10]). Lentiviral infection was used to overexpress or knock down transiently SHIP2 in cultured cells on d 10–12 of differentiation for 48 h (basal level) or 72 h (insulin stimulation), as previously described ([10], [20]). Human pLKO1-short hairpin RNA (shRNA) SHIP2 ([sequence]) was obtained from Functional Genomics Unit, University of Helsinki. […] Podocytes were lysed as previously described ([21]). Myotubes, hepatoma cells, and tissues were lysed and immunoblotting performed as in Tolvanen et al. ([19]) with anti-SHIP2 and anti-AMPK (Santa Cruz Biotechnology, Dallas, TX, USA); anti-phospho (p)Akt (S473), anti-pAMPK (Thr172), anti-AMPK, and anti-cleaved caspase-3 (Cell Signaling Technology, Danvers, MA, USA); anti-Pan Akt (R&D Systems, Minneapolis, MN, USA); anti-tubulin, anti-Glut4, and anti-Glut1 (MilliporeSigma, Burlington, MA, USA); and anti-actin (Abcam, Cambridge, United Kingdom).

SHIP2 expression level = experiment: Immunoblot of SHIP2 expression in cultured cells; assay type: cell-based, rat, human; conditions: 2 mM, 20–24 h; myotubes, podocytes, hepatoma cells
From the text: as §3

[4] = tested on: SHIP2-overexpressing podocytes; experiment: Apoptosis of SHIP2-overexpressing podocytes (cleaved caspase-3 immunoblot, Annexin V flow cytometry); assay type: cell-based, human; conditions: 2 mM, 48 h
Experimental: Immortalized human podocytes were maintained as previously described ([10]). Lentiviral infection was used to overexpress or knock down transiently SHIP2 in cultured cells on d 10–12 of differentiation for 48 h (basal level) or 72 h (insulin stimulation), as previously described ([10], [20]). […] Apoptosis was measured by flow cytometry using the Annexin V-FITC Apoptosis Kit (Becton Dickinson, Franklin Lakes, NJ, USA) and double staining with 7-aminoactinomycin D (Becton Dickinson), as previously described ([10]). Podocytes were lysed as previously described ([21]). Myotubes, hepatoma cells, and tissues were lysed and immunoblotting performed as in Tolvanen et al. ([19]) with anti-SHIP2 and anti-AMPK (Santa Cruz Biotechnology, Dallas, TX, USA); anti-phospho (p)Akt (S473), anti-pAMPK (Thr172), anti-AMPK, and anti-cleaved caspase-3 (Cell Signaling Technology, Danvers, MA, USA); anti-Pan Akt (R&D Systems, Minneapolis, MN, USA); anti-tubulin, anti-Glut4, and anti-Glut1 (MilliporeSigma, Burlington, MA, USA); and anti-actin (Abcam, Cambridge, United Kingdom).
Cell lysates were subjected to immunoblot analysis with anti-SHIP2, anti-cleaved caspase-3, and anti-actin IgGs. […] B, C) Quantification of SHIP2 and cleaved caspase-3 levels in A, normalized to actin. […] Apoptosis was measured by flow cytometry using Annexin V-FITC and 7-aminoactinomycin D (7AAD) double staining. […]

[5] = tested on: Akt phosphorylation (pAkt S473); experiment: Immunoblot of Akt phosphorylation in cultured cells; assay type: cell-based, rat, human; conditions: 2 mM, 20–24 h
Experimental: Lentiviral infection was used to overexpress or knock down transiently SHIP2 in cultured cells on d 10–12 of differentiation for 48 h (basal level) or 72 h (insulin stimulation), as previously described ([10], [20]). […] Podocytes were lysed as previously described ([21]). Myotubes, hepatoma cells, and tissues were lysed and immunoblotting performed as in Tolvanen et al. ([19]) with anti-SHIP2 and anti-AMPK (Santa Cruz Biotechnology, Dallas, TX, USA); anti-phospho (p)Akt (S473), anti-pAMPK (Thr172), anti-AMPK, and anti-cleaved caspase-3 (Cell Signaling Technology, Danvers, MA, USA); anti-Pan Akt (R&D Systems, Minneapolis, MN, USA); anti-tubulin, anti-Glut4, and anti-Glut1 (MilliporeSigma, Burlington, MA, USA); and anti-actin (Abcam, Cambridge, United Kingdom).
Cell lysates were subjected to immunoblot analysis with anti-SHIP2, anti-cleaved caspase-3, and anti-actin IgGs. […] Cell lysates were subjected to immunoblot analysis with anti-SHIP2, anti-Akt, anti-pAkt, and anti-actin IgGs. G) Quantification of pAkt levels in F presented as pAkt/Akt after normalizing to actin. Data are presented as the mean ± SD of 3–5 independent experiments. *P ≤ 0.05, **P ≤ 0.01, ***P ≤ 0.001 (Student’s t test).

[6] = tested on: HA-GLUT4-GFP at the plasma membrane of L6-GLUT4 cells; experiment: On-Cell Western and HA-GLUT4-GFP endocytosis assay in L6-GLUT4 cells; assay type: cell-based, rat; conditions: 20–24 h
Experimental: Glucose uptake assay and On-Cell Western were performed essentially as in Tolvanen et al. ([19]). […] Cells were transferred on ice; incubated with anti-HA IgG in serum-free medium for 15 min, followed by additional incubation in fresh cell differentiation medium for 15 min at +37°C; and fixed with 2% paraformaldehyde for 20 min. Cells were incubated with IRDye 800 donkey anti-mouse IgG and nuclear marker DRAQ-5 (Thermo Fisher Scientific). Detection and quantitation were performed with the Odyssey Infrared Imager (Li-Cor Biosciences, Lincoln, NE, USA).
C) Knockdown of SHIP2 reduces metformin-induced glucose uptake. […] L6-GLUT4 myotubes overexpressing SHIP2 were treated and glucose uptake performed as described in C. […] Time point 15 min indicates the amount of HA detected on the cells after 15 min internalization.

[7] = tested on: podocytes in kidneys of patients with T2D; experiment: Podocyte number per glomerulus (WT1-positive cells) in patient kidneys; assay type: in vivo, human; conditions: compared with people without T2D; WT1-positive cells per glomeruli
From the text: The use of human material was approved by the local Ethics Committee, and written, informed consent was received from study participants. Paraffin sections were stained with anti-SHIP2 (I-20) as in Hyvonen et al. ([10]) or anti- Wilms tumor protein 1 (WT1; Santa Cruz Biotechnology) using the Brightvision Poly-HRP-anti-Rabbit IgG kit (ImmunoLogic, Amsterdam, The Netherlands) and 3,3′-diaminobenzidine (Dako Cytomation, Carpinteria, CA, USA). Slides were counterstained with hematoxylin and digitally scanned with 3DHistech Pannoramic 250 FLASH II (3DHistech, Budapest, Hungary) at the Genome Biology Unit (University of Helsinki). Quantification of SHIP2 staining intensity was performed with the HistoQuant module (3DHistech). Podocyte number was estimated by counting the number of WT1-positive cells per glomerular cross-section in 10 glomeruli per patient in a blinded manner, as described in Guo et al. ([24]). Only glomeruli larger than 170 µm in diameter were examined to ensure sectioning through the center of each glomerulus.
Kidney samples were lysed, and the enzymatic activity of immunoprecipitated SHIP2 was analyzed by malachite green phosphate assay (n = 4–7). […] Ten randomly chosen glomeruli were analyzed from each patient (n = 6–7). […] Podocyte number per glomeruli was quantified by counting WT1-positive cells. Ten randomly chosen glomeruli were analyzed from each patient (n = 9–30).

[8] = biological target: T2, purified His-tagged SHIP2 phosphatase domain (Homo sapiens, UniProt O15357); experiment: Manual malachite green phosphate assay (96-well), purified SHIP2 phosphatase domain; assay type: biochemical; conditions: 10 µM; 100 ng enzyme; manual assay (Fig. 1B)
T2 construct: we produced a His-tagged human SHIP2 phosphatase domain; His; made in house
T2 sequence (O15357 419-732 limits assumed): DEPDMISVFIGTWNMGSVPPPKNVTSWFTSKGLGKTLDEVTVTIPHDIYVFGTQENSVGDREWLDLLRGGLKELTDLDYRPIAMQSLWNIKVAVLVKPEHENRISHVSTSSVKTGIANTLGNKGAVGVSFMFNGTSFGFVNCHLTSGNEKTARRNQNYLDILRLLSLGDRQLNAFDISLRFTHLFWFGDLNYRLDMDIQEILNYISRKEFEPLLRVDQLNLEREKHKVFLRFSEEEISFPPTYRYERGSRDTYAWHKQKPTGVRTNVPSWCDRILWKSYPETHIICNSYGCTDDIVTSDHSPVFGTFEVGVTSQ
Experimental: as §1
The catalytic activities of the recombinant SHIP2 and SHIP1 phosphatase domains were determined by malachite green phosphate assay at the High Throughput Biomedicine Unit (University of Helsinki) using D-myo-PI(3,4,5)P3 (Echelon Biosciences, Salt Lake City, UT, USA). Different volumes, resulting in desired final concentrations of inhibitors, were transferred to the wells of 384-well plates by using the Echo550 acoustic dispenser (Labcyte, San Jose, CA, USA). Recombinant protein (100 ng) in reaction buffer {10 mM HEPES, pH 7.25, 6 mM MgCl2, 0.1% CHAPS, 250 mM sucrose, and 0.25 mM EDTA} was placed in each well (7.5 µl), and the plates were preincubated at room temperature for 15 min. The phosphatase reaction was started by adding PI(3,4,5)P3 diluted in the reaction buffer (7.5 µl) to each well to reach a final concentration of 100 µM PI(3,4,5)P3 in the 15 µl reaction volume. […] Absorbance was measured at 620 nm using a Pherastar FS plate reader (BMG Labtech, Offenburg, Germany). […]
The catalytic activity of SHIP2 was measured by manual malachite green phosphate assay. […]

Q: With `C[C@H](NC(=O)c1sccc1OCc1ccc(Cl)cc1)c1ccccc1` [AS1949490] as the compound, how does the “inhibition of SHIP2 in hepatoma cells” value [1] read?
A: Its value is “did not inhibit”.

Q: For `CN(C)C(=N)N=C(N)N` [Metformin, 1,1-Dimethylbiguanide hydrochloride], which “SHIP2 activity in the liver” value [2] is on record?
A: Its value is “not reduced”.

Q: What about the “decrease in enzymatic activity of SHIP2 in kidney” value [2] of the same compound?
A: Its value is 40%.

Q: What about the “G6Pase mRNA level in kidney” value (PCK1 and G6Pase mRNA) of the same compound?
A: Its value is “increased”.

Q: What about the “G6Pase mRNA level in liver” value (PCK1 and G6Pase mRNA) of the same compound?
A: Its value is “decreased”.

Q: What about the “PCK1 mRNA level in kidney” value (PCK1 and G6Pase mRNA) of the same compound?
A: The value was “increased”.

Q: And the “PCK1 mRNA level in liver” value (PCK1 and G6Pase mRNA)?
A: Its value is “decreased”.

Q: What about the “effect on body weight” value (db/db mice) of the same compound?
A: Its value is “no effect”.

Q: What about the “effect on fasting blood glucose concentrations” value (db/db mice; 6 h fasting) of the same compound?
A: Its value is “no effect”.

Q: What about the “effect on urinary albumin excretion” value (db/db mice; 24 h urine) of the same compound?
A: Its value is “no effect”.

Q: What about the “insulin tolerance test: fasting blood glucose at 30–120 min after insulin administration” value (db/db mice; insulin 0.75 U/kg) of the same compound?
A: Its value is “reduces”.

Q: And the “insulin tolerance test: glucose area under the curve” value (db/db mice; insulin 0.75 U/kg)?
A: The value was “reduces”.

Q: What about the “effect on GLUT1 and GLUT4 protein expression levels” value [3] of the same compound?
A: The value was “no effect”.

Q: What about the “effect on SHIP2 expression level in cultured cells” value (SHIP2 expression level) of the same compound?
A: The value was “no effect”.

Q: What about the “cleaved caspase-3 level in SHIP2-overexpressing podocytes” value [4] of the same compound?
A: The value was “back to the level in the control”.

Q: What about the “level of apoptosis (Annexin V, flow cytometry) in SHIP2-overexpressing podocytes” value [4] of the same compound?
A: Its value is “back to the level of the control”.

Q: And the “insulin-induced Akt phosphorylation in SHIP2-overexpressing podocytes” value ([5]; insulin 200 nM, 15 min)?
A: Its value is “restored its activity”.

Q: What about the “Akt phosphorylation (activity) in basal state” value ([5]; myotubes and podocytes) of the same compound?
A: The value was “did not increase”.

Q: What about the “increase in amount of HA-GLUT4-GFP on the PM” value ([6]; L6-GLUT4 cells, basal conditions, 2 mM) of the same compound?
A: Its value is 40%.

Q: What about the “decrease in amount of HA-GLUT4-GFP on the PM after 15 min uptake (endocytosis)” value ([6]; metformin 2 mM) of the same compound?
A: The value was 10%.

Q: What about the “podocyte loss in metformin-receiving patients” value [7] of the same compound?
A: Its value is 11%.

Q: And the “reduction of catalytic activity of recombinant SHIP2 phosphatase domain” value [8]?
A: The value was 44%.
